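Each compound was tested at five concentrations against cells in 96-well plates for 48 hours. GI50 marks 50% less growth.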 Calls of active or inactive are those of the source. Cut-off read from the data, not from the text of the source: active = GI50 up to about 1.1 µM and inactive = higher.
Tests used:
Test in all cases: NCI-60 cell line screen, 48 h
U-251 = system: U-251
SNB-19 = system: SNB-19
MCF7 = system: MCF7
MDA-MB-231 = system: MDA-MB-231
Hs-578T = system: Hs-578T
Malme-3M = system: Malme-3M
NCI-H460 = system: NCI-H460
BT-549 = system: BT-549
SR = system: SR
SF-295 = system: SF-295
SNB-75 = system: SNB-75
M14 = system: M14
KM12 = system: KM12
HT-29 = system: HT-29
SF-268 = system: SF-268
TK-10 = system: TK-10
HL-60 = system: HL-60
A549 = system: A549
OVCAR-3 = system: OVCAR-3
SK-MEL-2 = system: SK-MEL-2

| Structure (SMILES) | GI50 (U-251) | GI50 (SNB-19) | GI50 (MCF7) | GI50 (MDA-MB-231) | GI50 (Hs-578T) | GI50 (Malme-3M) | GI50 (NCI-H460) | GI50 (BT-549) | GI50 (SR) | GI50 (SF-295) | GI50 (SNB-75) | GI50 (M14) | GI50 (KM12) | GI50 (HT-29) | GI50 (SF-268) | GI50 (TK-10) | GI50 (HL-60) | GI50 (A549) | GI50 (OVCAR-3) | GI50 (SK-MEL-2) |
| --- | --- | --- | --- | --- | --- | --- | --- | --- | --- | --- | --- | --- | --- | --- | --- | --- | --- | --- | --- | --- |
| Nc1ccc(-c2nc3ccccc3s2)cc1C#Cc1ccccc1 | 20.1 µM (inactive) | 22.3 µM (inactive) | 1.59 µM (inactive) | 19.7 µM (inactive) | 21.5 µM (inactive) | 12.2 µM (inactive) | 17 µM (inactive) | 17.1 µM (inactive) | 37.5 µM (inactive) | 21.2 µM (inactive) | 25.3 µM (inactive) | 16.3 µM (inactive) | 16.7 µM (inactive) | 19.6 µM (inactive) | 21.1 µM (inactive) | 13.9 µM (inactive) | 26.5 µM (inactive) | 22.6 µM (inactive) | 15.5 µM (inactive) | – |
| CCOC(=O)NCC(=O)NCC(=O)NCC(N)=O | > 100 µM (inactive) | > 100 µM (inactive) | > 100 µM (inactive) | > 100 µM (inactive) | > 100 µM (inactive) | > 100 µM (inactive) | – | > 100 µM (inactive) | > 100 µM (inactive) | > 100 µM (inactive) | – | > 100 µM (inactive) | > 100 µM (inactive) | > 100 µM (inactive) | > 100 µM (inactive) | > 100 µM (inactive) | – | > 100 µM (inactive) | > 100 µM (inactive) | > 100 µM (inactive) |
| Cc1nc2c(o1)C(=O)c1ccccc1/C2=N/c1ccccn1 | 16.8 µM (inactive) | 14.8 µM (inactive) | 17.7 µM (inactive) | 15.6 µM (inactive) | 14.8 µM (inactive) | 12.5 µM (inactive) | 14.6 µM (inactive) | 18.3 µM (inactive) | 24.1 µM (inactive) | > 100 µM (inactive) | 4.57 µM (inactive) | 18.6 µM (inactive) | 21.7 µM (inactive) | 18.8 µM (inactive) | 24.2 µM (inactive) | > 100 µM (inactive) | 15.5 µM (inactive) | 31.8 µM (inactive) | 4.66 µM (inactive) | 18.8 µM (inactive) |
| CCN(CC)CCC(=O)OC1C(C)=CC(C)C(=O)CC(C(C)CC2CCC(O)C(OC)C2)OC(=O)C2CCCCN2C(=O)C(=O)[C@@]2(O)OC(CCC2C)CC(OC)\C(C)=C/C=C/C=C/C(C)CC(C)C(=O)C1OC (stereo partly drawn) | 10.4 µM (inactive) | 4.34 µM (inactive) | < 0.01 µM (active) | 12.8 µM (inactive) | < 0.01 µM (active) | – | – | < 0.01 µM (active) | < 0.01 µM (active) | < 0.01 µM (active) | < 0.01 µM (active) | 10.4 µM (inactive) | 7.98 µM (inactive) | 1.91 µM (inactive) | 1.07 µM (active) | 5.69 µM (inactive) | 1.96 µM (inactive) | < 0.01 µM (active) | 11.2 µM (inactive) | – |
| O=c1c2ccccc2nc2[nH][nH]c(=S)n12 | > 100 µM (inactive) | > 100 µM (inactive) | > 100 µM (inactive) | > 100 µM (inactive) | 43.3 µM (inactive) | – | > 100 µM (inactive) | > 100 µM (inactive) | > 100 µM (inactive) | > 100 µM (inactive) | 48.4 µM (inactive) | > 100 µM (inactive) | > 100 µM (inactive) | > 100 µM (inactive) | > 100 µM (inactive) | > 100 µM (inactive) | > 100 µM (inactive) | > 100 µM (inactive) | > 100 µM (inactive) | > 100 µM (inactive) |
| Cc1cc(NS(=O)(=O)c2ccc(/N=N/c3c(O)c(C(=O)O)cc4ccccc34)cc2)nc(C)n1 | > 100 µM (inactive) | > 100 µM (inactive) | > 100 µM (inactive) | > 100 µM (inactive) | > 100 µM (inactive) | > 100 µM (inactive) | > 100 µM (inactive) | > 100 µM (inactive) | > 100 µM (inactive) | > 100 µM (inactive) | > 100 µM (inactive) | > 100 µM (inactive) | > 100 µM (inactive) | > 100 µM (inactive) | > 100 µM (inactive) | > 100 µM (inactive) | > 100 µM (inactive) | > 100 µM (inactive) | > 100 µM (inactive) | > 100 µM (inactive) |
| COc1ccc(N(C(=O)Nc2ccc(Cl)c(Cl)c2)c2ccccc2)cc1 | > 10 µM (inactive) | > 10 µM (inactive) | > 10 µM (inactive) | > 10 µM (inactive) | > 10 µM (inactive) | > 10 µM (inactive) | > 10 µM (inactive) | > 10 µM (inactive) | > 10 µM (inactive) | > 10 µM (inactive) | – | > 10 µM (inactive) | > 10 µM (inactive) | > 10 µM (inactive) | > 10 µM (inactive) | > 10 µM (inactive) | > 10 µM (inactive) | > 10 µM (inactive) | > 10 µM (inactive) | – |
| CC1C2CC(CC23OCC(CCl)O3)C1(C)C (stereo not drawn) | – | > 100 µM (inactive) | > 100 µM (inactive) | > 100 µM (inactive) | > 100 µM (inactive) | > 100 µM (inactive) | > 100 µM (inactive) | > 100 µM (inactive) | > 100 µM (inactive) | > 100 µM (inactive) | > 100 µM (inactive) | > 100 µM (inactive) | > 100 µM (inactive) | > 100 µM (inactive) | > 100 µM (inactive) | > 100 µM (inactive) | > 100 µM (inactive) | > 100 µM (inactive) | > 100 µM (inactive) | – |

— ChEMBL document CHEMBL1201862, “PubChem BioAssay data set” (2004)
